In patent US6835733B2, “Tropane linked benzofuran derivatives” (Eli Lilly and Company, priority 1999, dated 2004):
Where a name gives a salt, the structure may show the parent alone.

- melting point: 201 to 204 °C (dec.)
SMILES: COc1cccc2sc(C3=CC4CCC(C3)N4C[C@H](O)COc3cccc4occc34)cc12 (stereo partly shown) (as salt: oxalate)
